molecular target: T1, human GPR119 receptor (Homo sapiens, UniProt Q8TDV5, S329A/T327A); assay: cAMP assay (LANCE cAMP-384) in HEK293 cells stably expressing mutant human GPR119 receptor; assay type: cell-based; details: the 15th table; read-out: EC50
T1 construct: N-terminal leader […]; expressed in transfected cells
T1 sequence (Q8TDV5 with tags, fused parts or gaps T327A/S329A): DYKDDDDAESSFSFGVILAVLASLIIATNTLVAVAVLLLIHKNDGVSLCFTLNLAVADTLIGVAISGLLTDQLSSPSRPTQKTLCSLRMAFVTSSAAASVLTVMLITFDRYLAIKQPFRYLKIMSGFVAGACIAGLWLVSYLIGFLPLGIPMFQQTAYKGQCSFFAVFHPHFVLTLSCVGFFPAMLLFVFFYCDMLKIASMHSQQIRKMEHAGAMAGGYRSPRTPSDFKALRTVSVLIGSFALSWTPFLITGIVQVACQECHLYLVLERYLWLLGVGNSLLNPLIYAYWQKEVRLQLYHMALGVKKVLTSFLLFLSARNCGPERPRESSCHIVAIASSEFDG
Method in brief: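 Agonist EC50 came from nonlinear regression over 12 concentrations (30 μM–100 pM), with % stimulation at 10 μM where no EC50 was obtained. Cells: stable HEK293 with mutant human GPR119 (T327A/S329A), 20 min compound at 37° C; cAMP read by LANCE kit with standard curve.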

SMILES | EC50 [µM]
CC(C)OC(=O)N1CCC(ON=C2CCN(c3cc(F)c(C(=O)N4CCNCC4)cc3F)CC2)CC1 [Example 29-3] | 0.512
CC(C)OC(=O)N1CCC(ON=C2CCN(c3cc(F)c(C(=O)N4CCN(C)CC4)cc3F)CC2)CC1 [Example 29-4] | 0.08
CNCCN(C)C(=O)c1cc(F)c(N2CCC(=NOC3CCN(C(=O)OC(C)C)CC3)CC2)cc1F [Example 29-5] | 0.215
CC(C)OC(=O)N1CCC(ON=C2CCN(c3cc(F)c(C(=O)NCCN)cc3F)CC2)CC1 [Example 29-6] | 0.381
CC(C)OC(=O)N1CCC(ON=C2CCN(c3cc(F)c(C(=O)NCCCN)cc3F)CC2)CC1 [Example 29-7] | 0.042
CC(CO)NC(=O)c1cc(F)c(N2CCC(=NOC3CCN(C(=O)OC(C)C)CC3)CC2)cc1F (centres unmarked) [Example 29-8] | 0.081
CC(C)OC(=O)N1CCC(ON=C2CCN(c3cc(F)c(C(=O)NCCCO)cc3F)CC2)CC1 [Example 29-9] | 0.094
COCCCNC(=O)c1cc(F)c(N2CCC(=NOC3CCN(C(=O)OC(C)C)CC3)CC2)cc1F [Example 29-10] | 0.028
CC(C)OC(=O)N1CCC(ON=C2CCN(c3cc(F)c(C(=O)NCCO)cc3F)CC2)CC1 [Example 29-11] | 0.084
COCCNC(=O)c1cc(F)c(N2CCC(=NOC3CCN(C(=O)OC(C)C)CC3)CC2)cc1F [Example 29-12] | 0.012
CC(C)OC(=O)N1CCC(ON=C2CCN(c3cc(F)c(C(=O)N4CCCC[C@H]4CN4CCCC4)cc3F)CC2)CC1 [Example 29-31] | 0.225
CC(C)OC(=O)N1CCC(ON=C2CCN(c3cc(F)c(C(=O)NCCC4CCNCC4)cc3F)CC2)CC1 [Example 29-32] | 0.073
CC(C)OC(=O)N1CCC(ON=C2CCN(c3cc(F)c(C(=O)N4CCC(CN(C)C)CC4)cc3F)CC2)CC1 [Example 29-47] | 0.264
CC(C)OC(=O)N1CCC(ON=C2CCN(c3cc(F)c(C(=O)N4CCC(CN5CCCC5)CC4)cc3F)CC2)CC1 [Example 29-48] | 0.069
CC(C)OC(=O)N1CCC(ON=C2CCN(c3cc(F)c(C(=O)N4CCC[C@@H]4CN)cc3F)CC2)CC1 [Example 29-50] | 0.133
CC(C)OC(=O)N1CCC(ON=C2CCN(c3cc(F)c(C(=O)N4CCCC(CN5CCCCC5)C4)cc3F)CC2)CC1 (centres unmarked) [Example 29-56] | 0.133
CC(C)OC(=O)N1CCC(ON=C2CCN(c3cc(F)c(C(=O)N4CCCCC4CN)cc3F)CC2)CC1 (centres unmarked) [Example 29-57] | 0.185
CC(C)OC(=O)N1CCC(ON=C2CCN(c3cc(F)c(C(=O)N4CCC[C@H]4CN)cc3F)CC2)CC1 [Example 29-58] | 0.189

same assay, conditions: the 19th table; unit inferred; read-out: EC 50

SMILES | EC50 [µM]
CCc1cnc(N2CCC(ON=C3CCN(c4cc(F)c(C(=O)NCC5COCCN5)cc4F)CC3)CC2)nc1 (centres unmarked) [Example 29-87] | 0.128
CCc1cnc(N2CCC(ON=C3CCN(c4cc(F)c(C(=O)N5CCC[C@@H](N)C5)cc4F)CC3)CC2)nc1 [Example 29-88] | 0.221
CCc1cnc(N2CCC(ON=C3CCN(c4cc(F)c(C(=O)N5CCC[C@H](N)C5)cc4F)CC3)CC2)nc1 [Example 29-89] | 0.074
CCc1cnc(N2CCC(ON=C3CCN(c4cc(F)c(C(=O)NCC5CCNC5)cc4F)CC3)CC2)nc1 (centres unmarked) [Example 29-90] | 0.067
CCc1cnc(N2CCC(ON=C3CCN(c4cc(F)c(C(=O)NCC5CCCNC5)cc4F)CC3)CC2)nc1 (centres unmarked) [Example 29-93] | 0.056
CCc1cnc(N2CCC(ON=C3CCN(c4cc(F)c(C(=O)N5CCNC[C@@H]5C)cc4F)CC3)CC2)nc1 [Example 29-110] | 0.256
CCc1cnc(N2CCC(ON=C3CCN(c4cc(F)c(C(=O)N5C[C@H]6CNC[C@H]6C5)cc4F)CC3)CC2)nc1 [Example 29-111] | 0.295
CCc1cnc(N2CCC(ON=C3CCN(c4cc(F)c(C(=O)NCCC5CCNCC5)cc4F)CC3)CC2)nc1 [Example 29-112] | 0.038
CCc1cnc(N2CCC(ON=C3CCN(c4cc(F)c(C(=O)NCC5CNCCO5)cc4F)CC3)CC2)nc1 (centres unmarked) [Example 29-113] | 0.026
CCc1cnc(N2CCC(ON=C3CCN(c4cc(F)c(C(=O)N5CCCNCC5)cc4F)CC3)CC2)nc1 [Example 29-114] | 0.392
CCc1cnc(N2CCC(ON=C3CCN(c4cc(F)c(C(=O)N5C[C@@H]6C[C@H]5CN6)cc4F)CC3)CC2)nc1 [Example 29-115] | 2.01
CCc1cnc(N2CCC(ON=C3CCN(c4cc(F)c(C(=O)NC5CNC5)cc4F)CC3)CC2)nc1 [Example 29-116] | 0.322
CCc1cnc(N2CCC(ON=C3CCN(c4cc(F)c(C(=O)NCC[C@H](N)C(=O)O)cc4F)CC3)CC2)nc1 [Example 29-117] | 0.745
CCc1cnc(N2CCC(ON=C3CCN(c4cc(F)c(C(=O)N5CC[C@@H](N)C5)cc4F)CC3)CC2)nc1 [Example 29-118] | 0.201
CCc1cnc(N2CCC(ON=C3CCN(c4cc(F)c(C(=O)N5CC[C@H](N)C5)cc4F)CC3)CC2)nc1 [Example 29-119] | 0.075
CCc1cnc(N2CCC(ON=C3CCN(c4cc(F)c(C(=O)N5CC[C@H](CN)C5)cc4F)CC3)CC2)nc1 [Example 29-120] | 0.202

SMILES | EC50 [µM]
CCc1cnc(N2CCC(ON=C3CCN(c4cc(F)c(C(=O)NCC5CCCN5)cc4F)CC3)CC2)nc1 (centres unmarked) [Example 29-121] | 0.139
CCc1cnc(N2CCC(ON=C3CCN(c4cc(F)c(C(=O)NCC5CCCN5)cc4F)CC3)CC2)nc1 (centres unmarked) [Example 29-122] | 0.176
CCc1cnc(N2CCC(ON=C3CCN(c4cc(F)c(C(=O)NC5CCNC5)cc4F)CC3)CC2)nc1 (centres unmarked) [Example 29-123] | 0.407
CCc1cnc(N2CCC(ON=C3CCN(c4cc(F)c(C(=O)N5CCCC(CN)C5)cc4F)CC3)CC2)nc1 (centres unmarked) [Example 29-124] | 0.055
CCc1cnc(N2CCC(ON=C3CCN(c4cc(F)c(C(=O)N5CCC(CN)CC5)cc4F)CC3)CC2)nc1 [Example 29-125] | 0.168
CCc1cnc(N2CCC(ON=C3CCN(c4cc(F)c(C(=O)N5CCC(N)CC5)cc4F)CC3)CC2)nc1 [Example 29-126] | 0.469
CCc1cnc(N2CCC(ON=C3CCN(c4cc(F)c(C(=O)NC5CCCNC5)cc4F)CC3)CC2)nc1 (centres unmarked) [Example 29-127] | 0.322
CCc1cnc(N2CCC(ON=C3CCN(c4cc(F)c(C(=O)NCC5CCNCC5)cc4F)CC3)CC2)nc1 [Example 29-128] | 0.07
CCc1cnc(N2CCC(ON=C3CCN(c4cc(F)c(C(=O)N5CCCC(CNC)C5)cc4F)CC3)CC2)nc1 (centres unmarked) [Example 29-129] | 0.05
CCc1cnc(N2CCC(ON=C3CCN(c4cc(F)c(C(=O)N5CCC(CNC)CC5)cc4F)CC3)CC2)nc1 [Example 29-130] | 0.206
CCc1cnc(N2CCC(ON=C3CCN(c4cc(F)c(C(=O)N5CCCCC5CN)cc4F)CC3)CC2)nc1 (centres unmarked) [Example 29-131] | 0.064
CCc1cnc(N2CCC(ON=C3CCN(c4cc(F)c(C(=O)N5CCC[C@@H]5CN)cc4F)CC3)CC2)nc1 [Example 29-132] | 0.114
CCc1cnc(N2CCC(ON=C3CCN(c4cc(F)c(C(=O)N5CCC[C@H]5CN)cc4F)CC3)CC2)nc1 [Example 29-133] | 0.164
CCc1cnc(N2CCC(ON=C3CCN(c4cc(F)c(C(=O)N5CCC[C@H]5CNC)cc4F)CC3)CC2)nc1 [Example 29-134] | 0.437
CCc1cnc(N2CCC(ON=C3CCN(c4cc(F)c(C(=O)N5CCC[C@@H]5CNC)cc4F)CC3)CC2)nc1 [Example 29-135] | 0.297
CCc1cnc(N2CCC(ON=C3CCN(c4cc(F)c(C(=O)N5CCCCC5CNC)cc4F)CC3)CC2)nc1 (centres unmarked) [Example 29-136] | 0.12

— patent publication US8293729B2 (Boehringer Ingelheim International GmbH, priority 2009, dated 2012)
